{"source": "patent US20020165188A1", "about": "“Methods for inhibition of tumorigenic properties of melanoma cells” (priority 1999, published 2002)", "molecules": {"B1": {"name": "Plakoglobin (other, human, UniProt P14923 1-745, looked up)", "chain": "MEVMNLMEQPIKVTEWQQTYTYDSGIHSGANTCVPSVSSKGIMEEDEACGRQYTLKKTTTYTQGVPPSQGDLEYQMSTTARAKRVREAMCPGVSGEDSSLLLATQVEGQATNLQRLAEPSQLLKSAIVHLINYQDDAELATRALPELTKLLNDEDPVVVTKAAMIVNQLSKKEASRRALMGSPQLVAAVVRTMQNTSDLDTARCTTSILHNLSHHREGLLAIFKSGGIPALVRMLSSPVESVLFYAITTLHNLLLYQEGAKMAVRLADGLQKMVPLLNKNNPKFLAITTDCLQLLAYGNQESKLIILANGGPQALVQIMRNYSYEKLLWTTSRVLKVLSVCPSNKPAIVEAGGMQALGKHLTSNSPRLVQNCLWTLRNLSDVATKQEGLESVLKILVNQLSVDDVNVLTCATGTLSNLTCNNSKNKTLVTQNSGVEALIHAILRAGDKDDITEPAVCALRHLTSRHPEAEMAQNSVRLNYGIPAIVKLLNQPNQWPLVKATIGLIRNLALCPANHAPLQEAAVIPRLVQLLVKAHQDAQRHVAAGTQQPYTDGVRMEEIVEGCTGALHILARDPMNRMEIFRLNTIPLFVQLLYSSVENIQRVAAGVLCELAQDKEAADAIDAEGASAPLMELLHSRNEGTATYAAAVLFRISEDKNPDYRKRVSVELTNSLFKHDPAAWEAAQSMIPINEPYGDDMDATYRPMYSSDVPLDPLEMHMDMDGDYPIDTYSDGLRPPYPTADHMLA", "notes": "Endogenous protein immunoprecipitated from detergent lysates of cultured human cells; also called gamma-catenin; y-catenin"}, "B2": {"name": "Desmoglein 1 (other, human, UniProt Q02413 50-1049, looked up)", "chain": "EWIKFAAACREGEDNSKRNPIAKIHSDCAANQQVTYRISGVGIDQPPYGIFVINQKTGEINITSIVDREVTPFFIIYCRALNSMGQDLERPLELRVRVLDINDNPPVFSMATFAGQIEENSNANTLVMILNATDADEPNNLNSKIAFKIIRQEPSDSPMFIINRNTGEIRTMNNFLDREQYGQYALAVRGSDRDGGADGMSAECECNIKILDVNDNIPYMEQSSYTIEIQENTLNSNLLEIRVIDLDEEFSANWMAVIFFISGNEGNWFEIEMNERTNVGILKVVKPLDYEAMQSLQLSIGVRNKAEFHHSIMSQYKLKASAISVTVLNVIEGPVFRPGSKTYVVTGNMGSNDKVGDFVATDLDTGRPSTTVRYVMGNNPADLLAVDSRTGKLTLKNKVTKEQYNMLGGKYQGTILSIDDNLQRTCTGTININIQSFGNDDRTNTEPNTKITTNTGRQESTSSTNYDTSTTSTDSSQVYSSEPGNGAKDLLSDNVHFGPAGIGLLIMGFLVLGLVPFLMICCDCGGAPRSAAGFEPVPECSDGAIHSWAVEGPQPEPRDITTVIPQIPPDNANIIECIDNSGVYTNEYGGREMQDLGGGERMTGFELTEGVKTSGMPEICQEYSGTLRRNSMRECREGGLNMNFMESYFCQKAYAYADEDEGRPSNDCLLIYDIEGVGSPAGSVGCCSFIGEDLDDSFLDTLGPKFKKLADISLGKESYPDLDPSWPPQSTEPVCLPQETEPVVSGHPPISPHFGTTTVISESTYPSGPGVLHPKPILDPLGYGNVTVTESYTTSDTLKPSVHVHDNRPASNVVVTERVVGPISGADLHGMLEMPDLRDGSNVIVTERVIAPSSSLPTSLTIHHPRESSNVVVTERVIQPTSGMIGSLSMHPELANAHNVIVTERVVSGAGVTGISGTTGISGGIGSSGLVGTSMGAGSGALSGAGISGGGIGLSSLGGTASIGHMRSSSDHHFNQTIGSASPSTARSRITKYSTVQYSK", "notes": "Endogenous protein immunoprecipitated from detergent lysates of cultured human cells; also called Dsg1"}}, "key": {"E-cadherin": {"tested_on": "E-cadherin", "test": "E-cadherin expression in melanocytic cells under HGF stimulation (immunoblot)", "type": "cell-based, human", "procedure": "(§1) Optimal viral concentrations for infection were determined as the amounts of virus required to yield the desired levels of gene expression without apparent alteration in cellular phenotype or toxicity. Subconfluent melanocytes and melanoma cells were infected with adenoviruses for 2-4 hours at 37° C. in protein-free W489 medium. Viral suspension was then replaced with culture medium. Because dominant negative Desmoglein-3 vector AxCALNLDsg3ΔEC and E-cadherin vector AxCALNLEcadΔEC were made using the Cre-loxP system (Hanakawa et al., 2000), AxCANCre was co-infected with AxCALNLDsg3ΔEC or AxCALNLEcacLΔEC at a ratio of 1:1, respectively. Cells were allowed to recover for at least 24 hours before assay.\n(§2) For immunoblotting, cells were washed with PBS and harvested in RIPA buffer. Total protein concentrations were measured using the bicinchoninic acid (BCA) assay (Pierce Chemical Co. Rockford, Ill.). Samples were loaded at 15 μg/lane and separated on 8% SDS polyacrylamide gels and transferred to polyvinylidene difluoride (PVDF) membranes and probed with specific primary antibodies. To detect the signal, peroxidase-conjugated secondary antibody was added, followed by exposure using enhanced chemiluminescence (ECL) (Amersham, Arlington Heights, Ill.). Some of the immunoblots were quantified using NIH Image (version 1.61)."}, "Desmoglein 1": {"tested_on": "Desmoglein 1", "test": "Desmoglein 1 expression in melanocytic cells under HGF stimulation (immunoblot)", "type": "cell-based, human", "procedure": "as §1, §2"}, "[1]": {"tested_on": "melanocytes or melanoma cells", "test": "Growth of melanocytes and melanoma cells after HGF treatment", "type": "cell-based, human", "conditions": "HGF treatment alone"}, "c-Met": {"tested_on": "c-Met", "test": "c-Met phosphorylation by immunoprecipitation and anti-phosphotyrosine blot", "type": "cell-based, human", "procedure": "To investigate the status of c-Met phosphorylation, subconfluent melanoma cells were infected with LacZ or Ad.CMV.rhHGF (20 pfu/cell) and cultured for 48 hours. In neutralizing antibody-treated group, HGF neutralizing antibody (final concentration 10 ug/ml) was added to serum-free medium 24 hours before lysis. Cells were washed with cold PBS containing 1 mM Na3VO4, and rapidly scraped into 200 μl PBS containing 1% Triton X-100, 1% NP4O, 1 mM Na3VO4, 1 mM phenylmethyl sulfonyl fluoride (PMSF), and protease inhibitors (1 μg/ml leupeptin, aprotinin and pepstatin). After incubation on ice for 15 minutes, the extracts were separated by centrifugation at 13,000× g for 10 minutes. The supernatants were used for immunoprecipitation using an anti-c-Met antibody (5 μg) for 1 hour at 4° C. with shaking. Protein A-G sepharose CL-4B beads (Pharmacia Biotech, Uppsala, Sweden) were then added and incubated for 12 hours. Samples were washed four times with lysis buffer, boiled in Laemmli buffer containing (3-mercaptoethanol, and subjected to electrophoresis on an 8% SDS-polyacrylamide gel. Separated proteins were transferred onto PVDF membrane and detected by anti-phosphotyrosine primary antibody (PY2O) and peroxidase-conjugated secondary antibody. Signals were detected using ECL."}, "IGF-R1 [2]": {"target": "T1, IGF-R1 (human, UniProt P08069 31-1367, limits assumed)", "T1 construct": "Specificity control of the co-immunoprecipitation; also called IF-R1", "T1 sequence (P08069 31-1367 limits assumed)": "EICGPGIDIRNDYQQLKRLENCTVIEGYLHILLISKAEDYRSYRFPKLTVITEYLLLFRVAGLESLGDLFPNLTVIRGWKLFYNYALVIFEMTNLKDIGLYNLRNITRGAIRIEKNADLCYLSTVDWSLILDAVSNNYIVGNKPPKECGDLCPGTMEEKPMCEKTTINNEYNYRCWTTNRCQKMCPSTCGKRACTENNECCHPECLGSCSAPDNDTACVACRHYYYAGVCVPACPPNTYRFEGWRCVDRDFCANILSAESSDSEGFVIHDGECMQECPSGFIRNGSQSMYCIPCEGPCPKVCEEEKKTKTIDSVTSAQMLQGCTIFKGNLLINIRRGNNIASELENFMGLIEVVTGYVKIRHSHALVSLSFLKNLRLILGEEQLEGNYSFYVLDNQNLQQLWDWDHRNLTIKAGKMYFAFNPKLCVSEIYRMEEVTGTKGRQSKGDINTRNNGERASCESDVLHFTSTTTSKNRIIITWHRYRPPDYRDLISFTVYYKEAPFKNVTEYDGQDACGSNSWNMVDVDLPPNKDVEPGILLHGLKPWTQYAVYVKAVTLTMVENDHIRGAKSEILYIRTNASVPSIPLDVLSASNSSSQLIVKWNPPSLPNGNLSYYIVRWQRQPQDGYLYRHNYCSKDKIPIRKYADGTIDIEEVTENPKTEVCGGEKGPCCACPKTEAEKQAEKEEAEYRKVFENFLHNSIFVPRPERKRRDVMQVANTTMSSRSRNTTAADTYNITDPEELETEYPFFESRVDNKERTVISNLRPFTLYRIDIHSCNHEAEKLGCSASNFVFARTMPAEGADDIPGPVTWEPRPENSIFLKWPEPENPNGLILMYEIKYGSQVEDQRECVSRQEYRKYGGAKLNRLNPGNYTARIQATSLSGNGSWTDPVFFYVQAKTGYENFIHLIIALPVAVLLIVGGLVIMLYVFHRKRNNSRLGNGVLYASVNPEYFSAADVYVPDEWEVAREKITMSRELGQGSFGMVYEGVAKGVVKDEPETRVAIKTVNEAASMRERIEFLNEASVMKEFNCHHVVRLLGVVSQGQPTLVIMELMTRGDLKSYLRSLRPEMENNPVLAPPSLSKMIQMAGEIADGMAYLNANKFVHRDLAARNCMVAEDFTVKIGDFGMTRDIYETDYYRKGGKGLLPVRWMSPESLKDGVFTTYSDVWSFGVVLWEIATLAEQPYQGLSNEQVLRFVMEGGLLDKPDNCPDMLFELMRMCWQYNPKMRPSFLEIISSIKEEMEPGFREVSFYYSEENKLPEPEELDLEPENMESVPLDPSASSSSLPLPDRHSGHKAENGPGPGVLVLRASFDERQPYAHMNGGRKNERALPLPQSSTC", "test": "co-immunoprecipitation with anti-Plakoglobin antibody, blot probed with anti-IGF-R1 antibody", "excerpt": "(§3) Desmoglein 1, E-cadherin, c-Met and Plakoglobin can be co-immunoprecipitated from melanocytic cells. […] To test the possibility that physical interactions underlie the crosstalk between HGF/c-Met signaling and adhesion receptor regulation, the complex formation was investigated by immunoprecipitation analyses. Desmoglein 1, Plakoglobin, c-Met and E-cadherin were detected in the complexes pulled down by either anti-Desmoglein 1 antibody or anti-Plakoglobin antibody in keratinocytes and melanocytes. WM278 expresses no E-cadherin, but the other components were also found to form complexes. The specificity of the interaction was confirmed by probing the same blots with anti-IF-R1 antibody. IF-R1 was not detected in the immunoprecipitants but IF-R1 was detectable in whole cell extract.\n(§4) To investigate c-Met Desmoglein lE-cadherin complexes, cells cultured in their optimal media were lysed in 10 mM Tris-HCl (pH7.4), 1% NP-40, 1% Triton X-100, 2mM CaCl₂, 150 mM NaCl, 1 mM PMSF and protease inhibitors (1 μg/ml leupeptin, aprotinin and pepstatin). The extracts were immunoprecipitated using either anti-Desmoglein 1 or anti-Plakoglobin antibody in the same condition described above. Immunoprecipitants were separated on gels, transferred onto PVDF membrane and probed with anti-Desmoglein 1, -Plakoglobin, -c-Met and -E-cadherin antibodies."}, "IGF-R1 [3]": {"target": "T1, IGF-R1", "test": "co-immunoprecipitation with anti-Desmoglein 1 antibody, blot probed with anti-IGF-R1 antibody", "excerpt": "as §3, §4"}, "[4]": {"conditions": "Ad.CMV.rhHGF transduced melanocytes, antibody 10 μg/ml, wortmannin 30 μM, PD98059 10 μM and 50 μM"}, "[5]": {"conditions": "autocrine activation by HGF-expressing adenovirus, melanocytes, WM164, WM35"}, "[6]": {"conditions": "continuous/prolonged HGF stimulation (three days; Ad.CMV.rhHGF 20 pfu/cell), melanocytes, WM164 and WM35"}, "[7]": {"conditions": "melanocytes, one pulse of recombinant protein 50 ng/ml, five and twelve hour intervals"}}, "note": "“Also recorded” adds a separate entry of the source.", "data": [{"molecule": "COc1cccc(-c2cc(=O)c3ccccc3o2)c1N", "note": "[PD98059, reference compound]", "values": [{"measurement": "blocking of HGF-induced downregulation of E-cadherin", "setting": "E-cadherin; [4]", "result": "less effective"}, {"measurement": "blocking of downregulation of E-cadherin (summary statement)", "setting": "E-cadherin; [5]", "result": "partially blocked"}, {"measurement": "blocking of HGF-induced downregulation of Desmoglein 1", "setting": "Desmoglein 1; [4]", "result": "less effective"}, {"measurement": "blocking of downregulation of Desmoglein 1 (summary statement)", "setting": "Desmoglein 1; [5]", "result": "partially blocked"}]}, {"molecule": "HGF: multi-functional cytokine acting through tyrosine kinase receptor c-met; recombinant human HGF from R&D Systems", "values": [{"measurement": "growth stimulation", "setting": "[1]", "result": "No significant growth stimulation"}, {"measurement": "expression levels of E-cadherin", "setting": "E-cadherin; [6]", "result": "greatly reduced"}, {"measurement": "E-cadherin expression after pulse HGF", "setting": "E-cadherin; [7]", "result": "did not alter; also recorded: did not cause downregulation"}, {"measurement": "levels of c-Met", "setting": "c-Met; after HGF treatment", "result": "did not change"}, {"measurement": "tyrosine-phosphorylated c-Met", "setting": "c-Met; melanocytes and melanoma cells treated with additional HGF", "result": "dramatic increase"}, {"measurement": "expression levels of Desmoglein 1", "setting": "Desmoglein 1; [6]", "result": "greatly reduced"}, {"measurement": "Desmoglein expression after pulse HGF", "setting": "Desmoglein 1; [7]", "result": "did not alter; also recorded: did not cause downregulation"}]}, {"molecule": "B1", "values": [{"measurement": "binding result", "setting": "IGF-R1 [2]", "result": "no binding"}]}, {"molecule": "B2", "values": [{"measurement": "binding result", "setting": "IGF-R1 [3]", "result": "no binding"}]}]}
